# Patent US5624924A, “Quinobenzothiazine antineoplastic agents” (priority 1994, dated 1997)
# Where a name gives a salt, the structure may show the parent alone. Read-outs that look alike come from different tables or passages of the source.
# How the values were obtained:
# [1] = test system: P388 mouse leukemia cell line; experiment: In vitro cytotoxicity (MTT), P388; type: cell-based; conditions: P388, 72 h, read-out: In Vitro Cytotoxicity (IC50)
# Experimental: (§1) Metabolic activity was measured by the cells' ability to reduce the tetrazolium dye, 3-(4,5-dimethylthiazol-2-yl)-2,5-diphenyltetrazolium bromide (MTT), to a quantifiable colored formasan derivative. Surviving cells reduce the MTT dye. The inhibitory concentrations of killing 50% of the cells (IC50 s) were calculated. Testing was in accord with the following protocol:
# (§2) Test compounds and a reference antineoplastic agent, ADRIAMYCIN (doxorubicin hydrochloride), were dissolved in dimethyl sulfoxide (DMSO) and diluted, first with Earle's Balanced Salt Solution, followed by culture medium, to twice the highest concentration of the compound to be tested. From this concentrated stock, two-fold serial dilutions were prepared in 96-well microtiter trays, each well containing twice the desired final concentration of the compound. Each concentration was tested in triplicate and compared to triplicate drug-free controls.
# (§3) The cells were grown in the same medium used for diluting the compounds. Adherent cells were harvested by trypsinization according to the following procedure:
# (§4) After harvesting by trypsinization, viable cell counts were determined and cell density was adjusted to 25,000 cells/mL. Inoculum (0.1 mL) was then added to each well for a final concentration of 2,500 cells per well. Addition of the inoculum was used to dilute the test compounds to the desired concentration.
# (§5) Microtiter trays were incubated for three days at 36° C. in a humidified atmosphere containing 5% carbon dioxide.
# (§6) After three days, 20 microliters of 5 mg/mL MTT in phosphate-buffered solution were added to each well of the microtiter trays. The microtiter trays were then returned to the incubator for two to four hours to allow the surviving cells to reduce the dye. After this incubation, both the medium and the unreduced dye were removed by aspiration. DMSO was added to each well to dissolve the water-insoluble, colored end product of the dye reduction for spectrophotometric measurement at 570 nm.
# (§7) Compounds from Examples 4, 6, 8, 9 and 10 were additionally tested against human and murine tumor cell lines A549, HT-29, P388-D1, P388, P388-ADR(0.0), P388-ADR(0.1) and B16F109. (P388 is a mouse leukemia cell line similar to P388-D1, but animal-passaged; P388-ADR (0.0) is an ADRIAMYCIN-resistant variant of P388, the inoculum of which is grown in drug-free medium; P388-ADR (0.1) is an ADRIAMYCIN-resistant variant of P388, the inoculum of which is grown in medium with 0.1 mcg.ml ADRIAMYCIN; and B16F10 is a mouse melanoma.) The results are presented in Table 2; as shown in the table, the compounds of the present invention are effective cytotoxic agents even against the ADRIAMYCIN-resistant cell line P388-ADR.
# [2] = test system: A549 human lung cancer cell line; experiment: In vitro cytotoxicity (MTT), A549; type: cell-based; conditions: A549, 72 h
# Experimental: as §1, §2, §3, §4, §5, §6
# (§8) The results obtained which clearly show the cytotoxicity of the compounds of Examples 5, 6, 7 and 8 against […] tumor cell lines A549, HCT-8, HT-29 and P388-D1, are illustrated in Table 1. (A549 is a human lung cancer cell line; HCT-8 is a human colon cancer cell line; HT-29 is a human colon cancer cell line; and P388-D1 is a mouse leukemia cell line.)
# [3] = test system: B16F10 mouse melanoma; experiment: In vitro cytotoxicity (MTT), B16F10; type: cell-based; conditions: B16-F10, 72 h, read-out: In Vitro Cytotoxicity (IC50)
# Experimental: as §1, §2, §3, §4, §5, §6, §7
# [4] = test system: HT-29 human colon cancer cell line; experiment: In vitro cytotoxicity (MTT), HT-29; type: cell-based; conditions: HT-29, 72 h
# Experimental: as §1, §2, §3, §4, §5, §6, §8
# [5] = test system: P388-ADR(0.0), ADRIAMYCIN-resistant variant of P388; experiment: In vitro cytotoxicity (MTT), P388-ADR(0.0); type: cell-based; conditions: Mus musculus, 72 h, inoculum grown in drug-free medium, Table 2
# Experimental: as §1, §2, §3, §4, §5, §6, §7
# [6] = test system: P388-D1 mouse leukemia cell line; experiment: In vitro cytotoxicity (MTT), P388-D1; type: cell-based; conditions: Mus musculus, P388D1, 72 h, read-out: In Vitro Cytotoxicity (IC50), P388-D1
# Experimental: as §1, §2, §3, §4, §5, §6, §8
# [7] = test system: C-26 colon adenocarcinoma; experiment: In vivo activity against C-26 implanted intraperitoneally (Example 44); parameters: species or system mouse
# Experimental: (§9) The title compound of Example 37 above was tested against solid tumors in mice, using 1,3-bis(2-chloroethyl)-1-nitrosourea (BCNU) as a positive control. The tumor lines were M5076, an ovarian sarcoma implanted intraperitoneally (IP), and C-26, a colon adenocarcinoma, implanted intraperitoneally (IP) and subcutaneously (SC) in separate trials.
# (§10) All drugs were administered in 5% aqueous dextrose or other suitable diluent. Drug efficacy was determined by prolonged survival times of the test animals or reduced tumor mass as compared to negative controls. Test groups consisted of 10 mice. Control groups consisted of 20 mice. Animals were of one sex and of similar weight. Prior to testing, the tumor cell lines were propagated in BALB/cj mice. Tumor implants were aliquots of a donor pool brei,
# In the IP trials, the mean survival time (MST) of the groups of mice was determined, not counting animals surviving at the conclusion of the trial, and the mean lifespan comparison value of % MST(T/C) calculated, which value represents the ratio of treated to control group MST's expressed as a percentage.
# For C-26 colon adenocarcinoma, the tumor was implanted into CD2 F1 mice, IP and SC in separate trials. For the C-26 IP trial, the tumor was implanted IP on day 0. The test compound were administered four times a day IP from day 1 to day 9 for a total of nine days. BCNU was administered four times a day on days 1, 5 and 9.
# [8] = test system: C-26 colon adenocarcinoma; experiment: In vivo activity against C-26 implanted subcutaneously (Example 44); parameters: species or system mouse; conditions: 10 mg/kg, compound 37 days 1-9, BCNU days 1, 5, 9
# Experimental: as §9, §10
# For the C-26 SC trial, the tumor was implanted SC into mice on day 0. The test compound was administered four times a day IP from day 1 to day 9 for a total of nine days. BCNU was administered four times a day on days 1, 5, and 9. The mean tumor masses were determined on day 11 and day 21, and the experiment terminated on day 60. The mean tumor mass (MTM) inhibition value of % MTM(T/C) was calculated, which value represents the ratio of treated to control group MTM's expressed as a percentage.
# [9] = read-out: In Vitro Cytotoxicity (IC50), A549, Table 2, ADR: average of two tests
# [10] = read-out: In Vitro Cytotoxicity (IC50), HT-29, Table 2, ADR: average of two tests
# [11] = read-out: In Vitro Cytotoxicity (IC50), A549, Table 1, three day MTT assay
# [12] = read-out: In Vitro Cytotoxicity (IC50), HT-29, Table 1, three day MTT assay
# [13] = 10 mg/kg, compound 37 days 1-9, BCNU days 1, 5, 9
SMILES,IC50 [1] [µg/mL],"IC50 [2, 9] [µg/mL]",IC50 [3] [µg/mL],"IC50 [4, 10] [µg/mL]",other results
"CCOC(=O)c1cn2c3c(c(N4CCC(N)C4)c(F)cc3c1=O)Oc1cc3c(cc1-2)OCO3 (stereo not drawn) [Example 35, Ethyl 1-(3-aminopyrrolidin-1-yl)-2-fluoro-8,9-methylenedioxy-4-oxo-4H-quino[2,3,4-i,j][1,4]benzoxazine-5-carboxylate]",0.034,0.26,0.077,0.093,–
"N[C@H]1CCN(c2c(F)cc3c(=O)c(C(=O)O)cn4c3c2Oc2ccccc2-4)C1 [Example 16, 1((3S)-3-aminopyrrolidin-1-yl)-2-fluoro-4-oxo-4H-quino[2,3,4-i,j][1,4]benzoxazine-5-carboxylic acid hydrochloride]",0.017,0.23,0.018,0.055,IC50 [5]: 0.12 µg/mL
"NC1CCN(c2c(F)cc3c(=O)c(C(=O)O)cn4c3c2Oc2cc3c(cc2-4)OCO3)C1 (stereo not drawn) [Example 32, 1(3-aminopyrrolidin-1-yl)-2-fluoro-8,9-methylenedioxy-4-oxo-4H-quino[2,3,4-i,j][1,4]benzoxazine-5-carboxylic acid hydrochloride]",0.022,0.134,0.018,0.042,–
"Cc1ccc2c(c1)Oc1c(N3CC[C@@H](N)C3)c(F)cc3c(=O)c(C(=O)O)cn-2c13 [Example 19, 1-((3R)-3-aminopyrrolidin-1-yl)-2-fluoro-9-methyl-4-oxo-4H-quino[2,3,4-i,j][1,4]benzoxazine-5-carboxylic acid hydrochloride]",0.047,0.24,0.049,0.052,–
"CCOC(=O)c1cn2c3c(c(N4CCC(NC(C)=O)C4)c(F)cc3c1=O)Oc1cc(C)ccc1-2 (stereo not drawn) [6, step 2, Ethyl 1-(3-acetamidopyrrolidin-1-yl)-2-fluoro-9-methyl-4-oxo-4H-quino[2,3,4-i,j][1,4]benzoxazine-5-carboxylate]",–,–,–,–,"IC50 ([6]; Table 1, three day MTT assay): 0.65 µg/mL; IC50 [2, 11]: 1.01 µg/mL; IC50 [4, 12]: 0.64 µg/mL"
"CC(C)(C)c1ccc2c(c1)-n1cc(C(=O)O)c(=O)c3cc(F)c(N4CCC(N)C4)c(c31)O2 (stereo not drawn) [Example 21, 1-(3-aminopyrrolidin-1-yl)-8-t-butyl-2-flouro-4-oxo-4H-quino[2,3,4-i,j][1,4]benzoxazine-5-carboxylic acid hydrochloride]",0.063,0.247,0.045,0.078,–
"N[C@@H]1CCN(c2c(F)cc3c(=O)c(C(=O)O)cn4c3c2Oc2ccccc2-4)C1 [Example 17, 1-((3R)-3-aminopyrroidin-1-yl)-2-fluoro-4-oxo-4H-quino[2,3,4-i,j][1,4]benzoxazine-5-carboxylic acid hydrochloride]",0.021,0.042,0.011,0.068,IC50 [5]: 0.1 µg/mL
"Cc1ccc2c(c1)-n1cc(C(=O)O)c(=O)c3cc(F)c(N4CCC(N)C4)c(c31)O2 (stereo not drawn) [Example 4, 1-(3-aminopyrrolidin-1-yl)-2-fluoro-8-methyl-4-oxo-4H-quino[2,3,4-i,j][1,4]benzoxazine-5-carboxylic acid hydrochloride]",0.0384,0.122,0.0221,0.0431,IC50 [5]: 0.24 µg/mL
"NC1CCN(c2c(F)cc3c(=O)c(C(=O)Nc4ccc(F)cc4F)cn4c3c2Oc2ccccc2-4)C1 (stereo not drawn) [Example 30, 1-(3-aminopyrrolidin-1-yl)-2-fluoro-4-oxo-4H-quino[2,3,4-i,j][1,4]benzoxazine-5-(N-2,4-difluorphenyl)carboxamide hydrochloride]",0.6,4.1,1.3,1.6,–
"NC1CCN(c2c(F)cc3c(=O)c(C(=O)N4CCOCC4)cn4c3c2Oc2ccccc2-4)C1 (stereo not drawn) [Example 29, 1-(3-aminopyrrolidin-1-yl)-2-fluoro-5-(1-morpholinocarbonyl)-4-oxo-4H-quino[2,3,4-i,j][1,4]benzoxazine trifluoracetate salt]",0.54,6,0.56,1.4,IC50 [5]: 49.4 µg/mL
"O=NN(CCCl)C(=O)NCCCl [BCNU, 1,3-bis(2-chloroethyl)-1-nitrosourea, reference compound]",–,–,–,–,"% MST(T/C) [7, 13]: 201%; MST [7, 13]: 41.4; test animals that survived the trial ([7]; BCNU 10 mg/kg (footnote b)): One of ten test animals survived the trial; % MTM(T/C) ([8]; day 11): 1%; MTM ([8]; day 11): 2 mg; % MTM(T/C) ([8]; day 21): 7%; MTM ([8]; day 21): 244 mg"
"Cc1cc(C)c2c(c1)-n1cc(C(=O)O)c(=O)c3cc(F)c(N4CCC(N)C4)c(c31)O2 (stereo not drawn) [Example 15, 1-(3-aminopyrrolidin-1-yl)-8,10-dimethyl-2-fluoro-4-oxo-4H-quino[2,3,4-i,j][1,4]benzoxazine-5-carboxylic acid hydrochloride]",0.012,0.034,0.015,0.015,–
"NC1CCN(c2c(F)cc3c(=O)c(C(=O)O)cn4c3c2Oc2cc(F)ccc2-4)C1 (stereo not drawn) [Example 7, 1-(3-aminopyrrolidin-1-yl)-2,9-difluoro-4-oxo-4H-quino[2,3,4-i,j][1,4]benzoxazine-5-carboxylic acid hydrochloride]",–,4.1,–,0.2,"IC50 ([6]; Table 1, three day MTT assay): 0.11 µg/mL; IC50 ([6]; Table 2, ADR value marked *: single test): 0.11 µg/mL; IC50 [2, 11]: 4.1 µg/mL; IC50 [4, 12]: 0.21 µg/mL"
"CCOC(=O)c1cn2c3c(c(N4CCC(NC(C)=O)C4)c(F)cc3c1=O)Oc1cc([N+](=O)[O-])ccc1-2 (stereo not drawn) [Example 5, Ethyl 1-(3-acetamidopyrrolidin1-yl)-2-fluoro-9-nitro-4-oxo-4H-quino[2,3,4-i,j][1,4]benzoxazine-5-carboxylate]",–,–,–,–,"IC50 ([6]; Table 1, three day MTT assay): 0.011 µg/mL; IC50 [2, 11]: 0.13 µg/mL; IC50 [4, 12]: 0.078 µg/mL"
